What is called IC50 is the midpoint of a concentration-inhibition curve.

Data set [1] can be described thus: In vitro metabolic stability in liver microsomes, mouse. In kind it is in vitro ADME. The conditions noted are these: for microsomal CLint at 2 µM: pH 7.3, read-out: CLint (µL/min/mg protein) mouse.
Data set [2] can be described thus: In vitro metabolic stability in liver microsomes, dog. In kind it is in vitro ADME. The conditions noted are these: for microsomal CLint at 2 µM: dog, microsomes, pH 7.3. (Liver microsomes are a subcellular fraction often used to study metabolism.)
Data set [3] can be described thus: In vitro metabolic stability in liver microsomes, rat. The conditions noted are these: for microsomal CLint at 2 µM: pH 7.3, read-out: CLint (µL/min/mg protein) rat. In kind it is in vitro ADME. As to the method: (§1) Example D: In Vitro Metabolic Stability of Human and Rat Liver Microsomes Test Buffer Preparation
(§2) Dissolve 1900 mg of MgCl2 in 400 mL of ultrapure water.
(§3) Dissolve 17.42 g K2HPO4 and 13.65 g KH2PO4 into 1000 mL of ultrapure water, respectively. Mix a certain proportion of K2HPO4 and KH2PO4 to adjust the pH to 7.30 ± 0.10.
(§4) Prepare a solution of 10 ng/mL labetalol and 10 ng/mL glyburide in acetonitrile and store at 4° C.
(§5) Prepare 10 mM verapamil (positive control) and test article stock solutions in DMSO. Then, with MeOH/ACN/H2O solution (1:1:2 by volume), diluted to 50 µM and 200 µM working solutions, respectively.
(§6) experiment procedure: • 1) Add 40 µL MgCl2 and 306 µL PBS to 96 wells (set blank control group, positive control group, test compound sample group, and negative control group at the same time) • 2) Add 4 µL of compound working solution to each well (4 µL of PBS buffer for blank group) (Note: the final concentration of DMSO volume in the system is ≤ 0.5%) • 3) Add 10 µL of liver microsomes (concentration: 20 mg/mL) to each well, mix well, and pre-incubate at 37° C. for 10 minutes. • 4) Add 40 µL of 10 mM NADPH working solution to each well to start the reaction (add equal volume of PBS buffer for blank control group and negative control group respectively), the total reaction volume is 400 µL. • 5) Take out 50 µL samples from the above reaction solution at 0, 5, 15, and 45 minutes, and add 400 µL of reaction stop solution to stop the reaction • 6) Shake the sample after the termination of the reaction on a shaker for 5 minutes. • 7) Centrifuge the sample at 3200 rcf for 10 minutes. After the centrifugation is complete, transfer 50 µL of the supernatant to 200 µL of H2O for dilution for LC-MS/MS analysis.
(§7) Calculations of t½ and CLint are performed using the first-order kinetic equations: […]
(§8) where k represents the elimination constant, calculated from a log-linear plot of percentage remaining versus time. t½ represents half-life. Cprotein is the concentration of liver microsomes.

Data set [4] is described as follows: In vitro metabolic stability in liver microsomes, monkey. In kind it is in vitro ADME. The conditions noted are these: for microsomal CLint at 2 µM: pH 7.3, read-out: CLint (µL/min/mg protein) monkey.
A short description of data set [5]: In vitro metabolic stability in liver microsomes, human. In kind it is in vitro ADME. Particulars: for microsomal CLint at 2 µM: pH 7.3, read-out: CLint (µL/min/mg protein) human. As to the method: as §1, §2, §3, §4, §5, §6, §7, §8
A further data set has as its system leukemia cells MV-4-11. As to the kind of experiment: Cell proliferation assay, CELL TITER-GLO (CTG) luminescence, MV-4-11. In kind it is cell-based. As to the method:
(§9) Example B: Cell Proliferation Assay
(§10) The effects of the compounds of the invention on the proliferation of leukemia cells MV-4-11 and lung cancer cells NCI-H358 were evaluated using in vitro cell assays. The detection method used in the experiment is the CELL TITER-GLO (CTG) luminescence method, which can detect the number of viable cells by quantifying ATP. Because ATP participates in a variety of enzymatic reactions in vivo, it is an indicator of the metabolism of living cells, and its content directly reflects the number and state of cells. During the experiment, CellTiter-Glo™ reagent was added to the cell culture medium to measure the luminescence value. The value is proportional to the amount of ATP, and ATP is positively related to the number of living cells, so the cell viability can be examined by detecting the ATP content.
(§11) experiment procedure: • (1) Cell plating: • Take a bottle of MV-4-11 cells in logarithmic growth phase, resuspend the cells by centrifugation and count them. After adjusting the cell density, they were seeded into a 96-well plate (Corning #3917). After culturing in a 5% CO2 incubator for 24 hrs, the compound of the present invention was added for treatment; • Take a bottle of NCI-H358 cells in logarithmic growth phase, digest and resuspend the cells, count them, adjust the cell density, and inoculate them into a 96-well transparent ultra-low adsorption cell culture plate (Corning #3474), inoculate 2000 cells per well. The plate was placed in an incubator at 37° C. and 5% CO2 for 24 hrs, and then the compound of the present invention was added for treatment; • (2) Cell compound treatment: • An appropriate amount of the compound of the present invention was prepared for cell treatment. The final concentration of the compound from high to low was 1000 nM, 333.3 nM, 111.1 nM, 37.04 nM, 12.35 nM, 4.115 nM, 1.372 nM, 0.4572 nM, 0.1524 nM, and 0 nM. The plate was placed in a 37° C., 5% CO2 incubator for 120 hrs. Only adding medium without cell wells was set as the blank group; the group with compound concentration of 0 nM was the zero-adjusting group. • (3) CTG detection: • After NCI-H358 cells were cultured for 96 hrs, 50 µL of CellTiter-Glo® Luminescent Cell Viability Assay solution was added to each well, shaken gently for 2 mins, and incubated at room temperature for 10 mins. The cell reaction system was transferred to a white-bottomed 96-well plate. Read the detection value of each well on a multi-function microplate reader. • After MV-4-11 cells were cultured for 120 hrs, 50 µL of CellTiter-Glo® Luminescent Cell Viability Assay solution was added to each well, gently shaken for 2 mins, and incubated at room temperature for 10 mins. Check the value. • (4) Data analysis: • Calculate the inhibition rate from the luminescence value readings, • [formula]
(§12) The log(inhibitor) vs. response-Variable slope of GraphPad Prism was fitted to dose-response curves and IC50s of compounds that inhibited cell proliferation were calculated.
(In general: In ATP-based viability assays light output follows the ATP content of the culture.)

In data set [6] the test system is lung cancer cells NCI-H358. As to the kind of experiment: Cell proliferation assay, CELL TITER-GLO (CTG) luminescence, NCI-H358. In kind it is cell-based. Particulars: cultured for 96 hrs. As to the method:
as §9, §10, §11, §12

The next data set concerns the target SHP2 (Homo sapiens (Human), UniProt Q06124). As to the kind of experiment: SHP2 allosteric inhibitory enzyme activity assay (DiFMUP fluorescence). In kind it is biochemical. The conditions noted are these: read-out: SHP2 enzymatic activity IC50. The text has this:
Example A: SHP2 Allosteric Inhibitory Enzyme Activity Assay
SHP2 is allosterically activated by binding of a bis-tyrosyl-phosphorylated peptide to its Src homology 2 (SH2) domain. This later activation step results in the release of the autoinhibitory interface of SHP2, which in turn activates the SHP2 protein tyrosine phosphatase (PTP) and is available for substrate recognition and reaction catalysis. The catalytic activity of SHP2 was monitored using the surrogate DiFMUP in a rapid fluorescence assay format.
experiment procedure: • (1) Compound preparation: • The compounds of the present invention (10 mM stock solution) were diluted to appropriate times with 100% DMSO, and the final test concentrations of the compounds of the present invention were 10 µM, 3.3333 µM, 1.1111 µM, 0.3704 µM, 0.1235 µM, 0.0412 µM, 0.0137 µM, 0.0046 µM, 0.0015 µM, 0.00 µM; • (2) Prepare the enzyme reaction working solution: • Perform SHP2 enzymatic assays in 96-well black polystyrene plates (flat bottom, low flange, non-binding surface) (Perki Elmer, Cat#6005270) at room temperature using a final reaction volume of 50 µL and the following assay buffer conditions: 60 mM HEPES, 75 mM NaCl, 75 mM KCl, 0.05% BRIJ-35, 1 mM EDTA, 5 mM DTT. • (3) Enzyme-catalyzed reaction and data monitoring: • Add the compound of the present invention to the corresponding 96-well plate, and set the blank test well without compound and enzyme only with buffer. Thaw SHP2 Activating Peptide (IRS1_pY1172(dPEG8)pY1222) on ice, add 25 µM to each well, then add 0.2 ng of SHP2 protein sample to the corresponding well plate and incubate at room temperature for 1 hour. The surrogate substrate DiFMUP (Invitrogen, Cat #D6567) was added to the reaction and allowed to react for 1 hour at room temperature. Fluorescence signals were monitored using a microplate reader (Envision, Perki Elmer) using excitation and emission wavelengths of 340 nm and […], respectively. • (4) Data analysis: • Calculation Formula: • [formula]
Among them: Conversion_sample is the conversion rate reading of the sample; Conversion_min is the average value of blank control wells, representing the conversion rate readings of wells without enzymatic activity; Conversion_max is the mean ratio of positive control wells, representing the conversion rate readings of wells without compound inhibition. The log(inhibitor) vs. response-Variable slope of the analysis software GraphPad Prism was used to fit the dose-response curve, and the IC50 value of the compound for the enzymatic activity was calculated.

The mark [7] stands for this setting: Homo sapiens, MV4-11, cultured for 120 hrs.
Where [8] appears, read: Homo sapiens, NCI-H358, ultra-low adsorption plate.

On to `Nc1ncc(OCC#Cc2cnc(N3CCC4(CC3)Cc3ccccc3[C@H]4N)c(CO)n2)cn1` [Compound A19, (S)-(3-(1-amino-1,3-dihydrospiro[indene-2,4′-piperidin]-1′-yl)-6-(3-( (2-Aminopyrimidine-5-yl)oxy)prop-1-yn-1-yl)pyrazin-2-yl)methanol], for which the microsomal CLint at 2 µM turned out to be 21.4 µL/min/mg in data set [1]; 18.3 µL/min/mg in data set [2]; 31.6 µL/min/mg in data set [3]; 21.2 µL/min/mg in data set [4]; 8.2 µL/min/mg in data set [5].
On to `N[C@@H]1c2ccccc2CC12CCN(c1ncc(C#CCOc3ccc(C(F)(F)F)cc3)nc1CO)CC2` [Compound A14, (S)-(3-(1-amino-1,3-dihydrospiro[indene-2,4′-piperidin]-1′-yl)-6-(3-(4-(trifluoromethyl)phenoxy)prop-1-yn-1-yl)pyrazin-2-yl)methanol], for which the microsomal CLint at 2 µM in data set [1] came out at 6.4 µL/min/mg; in data set [2], 7.8 µL/min/mg; in data set [3], 1.8 µL/min/mg; in data set [4], 3.1 µL/min/mg; in data set [5] it was 1.4 µL/min/mg.
Consider “(S)-4-((3-(5-(1-amino-1,3-dihydro spiro[indene-2,4′-piperidin]-1′-yl)-6-(hydroxymethyl)pyrazin-2-yl)pr op-2-yn-1-yl)oxy)-N-picoline amide [Compound A40]”, for which the “CLint (µL/min/mg protein) mouse” value in data set [1] is on record as 11.0 µL/min/mg protein. For the same molecule, the “CLint (µL/min/mg protein) dog” value in data set [2] (dog liver microsomes) was found to be 7.8 µL/min/mg protein. The “CLint (µL/min/mg protein) rat” value in data set [3] was found to be 11.7 µL/min/mg protein. Also, the “CLint (µL/min/mg protein) monkey” value in data set [4] was 15.5 µL/min/mg protein. Moreover, the “CLint (µL/min/mg protein) human” value in data set [5] is recorded as 11.0 µL/min/mg protein.
“(S)-(3-(1-amino-1,3-dihydrospiro[ indene-2,4′-piperidin]-1′-yl)-6-(3-( benzo[d][1,3]dioxyol-5-oxy)prop-1-yn-1-yl)pyrazin-2-yl)methanol [Compound A28]”: the figures for the IC50 (with leukemia cells MV-4-11 (cultured for 120 hrs); in data set [6] (ultra-low adsorption plate); at SHP2) were 6.1 nM, 7 nM and 1.5 nM, respectively.
For `Cn1nccc1Nc1ccc(OCC#Cc2cnc(N3CCC4(CC3)Cc3ccccc3[C@H]4N)c(CO)n2)cc1` [Compound A77], in that order: 11 nM, 36 nM and 5.9 nM.
Turning to `N[C@@H]1c2ccccc2CC12CCN(c1ncc(C#CCOc3ccc(C(=O)NC4CC4)cc3)nc1CO)CC2` [Compound A76, (S)-4-((3-(5-(1-amino-1,3-dihydrospiro[indene-2,4′-piperidin]-1′-yl)-6-(hydroxymethyl)pyrazin-2-yl)prop-2-yn-1-yl)oxy)-N-cyclopropyl benzamide], the figures for the concentration for half-maximal inhibition (IC50) (with leukemia cells MV-4-11 (cultured for 120 hrs); in data set [6] (ultra-low adsorption plate); on SHP2) were 3.3 nM, 19 nM and 3.4 nM, respectively.
In the case of `COc1ccc(OCC#Cc2cnc(N3CCC4(CC3)Cc3ccccc3[C@H]4N)c(CO)n2)cc1` [Compound A09, (S)-(3-(1-amino-1,3-dihydrospiro [indene-2,4′-piperidine]-1′-yl)-6-(3-(4-methoxyphenoxy)prop-1-yn-1-yl)pyrazin-2-yl) methanol], the IC50 in the data set with leukemia cells MV-4-11 (setting [7]) turned out to be 2.6 nM; in data set [6] (setting [8]), 4.9 nM; on SHP2, 0.9 nM.
As for `COc1cc(OCC#Cc2cnc(N3CCC4(CC3)Cc3ccccc3[C@H]4N)c(CO)n2)ccn1` [Compound A49, (S)-(3-(1-amino-1,3-dihydrospiro[indene-2,4′-piperidin]-1′-yl)-6-(3-((2-methoxypyridine-4-yl)oxy)prop-1-yn-1-yl)pyrazin-2-yl)methanol], the IC50 in the data set with leukemia cells MV-4-11 (setting [7]) turned out to be 6.7 nM; in data set [6] (setting [8]), 8.5 nM; on SHP2, 1.4 nM.
`COc1ccc2c(c1)[C@@H](N)C1(CCN(c3ncc(C#CCOc4ccc(C(N)=O)cc4)nc3CO)CC1)C2` [Compound A58, (S)-4-((3-(5-(1-amino-6-methoxy-1,3-dihydrospiro[indene-2,4′-piperidin]-1′-yl)-6-(hydroxymethyl)pyrazin-2-yl)prop-2-yn-1-yl)oxy)benzamide]: the IC50 with leukemia cells MV-4-11 (setting [7]) came to 0.8 nM; in data set [6] (setting [8]), 4 nM; at SHP2, 1.5 nM.
